Source: patent publication US11389456B2, “Compounds and methods for treating oxalate-related diseases” (OxaluRx, Inc., priority 2018, dated 2022)
Converted amounts (≈) assume the structure as drawn.

Tests used:
[1] = target: glycolate oxidase (GOX) in HepaRG-CAR cells (Homo sapiens (Human), UniProt Q9UJM8); assay: HepaRG-CAR cell-based assay for quantitation of glycolate oxidase inhibition (cellular glycolate flux, GC-MS); conditions: HepaRG-CAR cells, 500 μM glycolate, 48 hours incubation; read-out: IC50
[2] = target: recombinant full-length human hydroxyacid oxidase 1 (HAO1), the equivalent of hGOX (Homo sapiens (Human), UniProt Q9UJM8); assay: In-vitro human glycolate oxidase (hGOX) assay (Amplex red/HRP fluorescence); format: biochemical
Experimental: Biological Activity Assay: In-Vitro Human Glycolate Oxidase (hGOX) Assay
The in-vitro glycolate oxidase assay was performed using recombinant full-length human hydroxyacid oxidase 1 (HAO1), the equivalent of hGOX. […] Purified HAO1 was dissolved in assay buffer consisting of 10 mM NaCl, 110 mM KCl, 2 mM MgCl2, 50 mM HEPES (pH 7.4) and 0.01% Triton™ X-100.

[3] = Stability in human plasma; format: in vitro ADME; conditions: read-out: Plasma Stability T1/2
Experimental: Stability in Human Plasma.
Stock compounds were prepared for testing the stability in human plasma. First, 0.05 M sodium phosphate and 0.07 M NaCl buffer, pH 7.4, were pre-heated. In deionized water, 14.505 g/L Na2HPO 12H2O, 1.483 g/L NaH2PO4.2H2O and 4.095 g/L NaCl were dissolved. The basic solution was titrated with the phosphoric acid to pH 7.40. Frozen plasma was quickly thawed at 37° C. The plasma was centrifuged at 3,000 rpm for 8 minutes to remove clots, then pipetted and pooled as the plasma stock for the experiment. Only plasma within the range of pH 7.4 to pH 8 was used. If higher than pH 8, the plasma was discarded. The initial pH of the plasma was not adjusted to pH 7.4 with acid or by bubbling with carbon dioxide. By using a 5% carbon dioxide incubator and PBS buffer, a pH of 7.4 will be reached after the 4-hour equilibrium dialysis time. Plasma was iced until use.
Spiking solution A with 0.5 mM testing compounds was prepared by adding 10 μL of 10 mM test compounds stock solution to 190 μL DMSO. Spiking solution B with 0.02 mM testing compound was prepared by adding 40 μL of spiking solution A to 960 μL of […] sodium phosphate buffer with 0.5% BSA. The plasma and spiking solution B were prewarmed at 37° C. for 5 minutes. Ten μL of pre-warmed spiking solution B was added into the wells designated for all the time points (5, 15, 30, 45, 60 minutes). For the 0-minute timepoint, 400 μL acetonitrile containing internal standard were added to the wells of 0-minute plate and then 90 μL plasma were added. For the other timepoints, 90 μL of pre-warmed plasma were added into the wells (0, 5, 15, 30, 45, 60 minutes) and the timing was started. At 5, 15, 30, 45, 60 minutes, 400 μL acetonitrile containing internal standard were added to the wells of corresponding plates, respectively, to stop the reaction. After quenching, the plates were shaken on a vibrator (IKA, MTS 2/4) for 10 minutes at 600 rpm and then centrifuged at 5594×g for 15 minutes (Thermo Multifuge×3R). Fifty μL of supernatant was transferred from each well into a 96-well sample plate containing 50 μL ultra-pure water (Millipore, ZMQS50F01) for LC/MS analysis.

[4] = Protein binding (plasma equilibrium dialysis); format: in vitro ADME; conditions: 5 hours at 37° C.; for fraction unbound at 5 h, 1 μM: read-out: Protein Binding Fraction Bound (converted)
Experimental: For testing protein binding of stock compounds solubilized in DMSO, spiking solutions of test and reference compounds were prepared. Solution A (0.5 mM) was prepared by adding 10 μL of 10 mM stock solution into 190 μL of DMSO. Solution B (0.02 mM) was prepared by adding 8 μL of Solution A into 192 μL of 0.05 M sodium phosphate buffer. The final DMSO concentration in Solution B was 4%.
To prepare test and reference compounds in plasma, a 96-well plate with 380 μL aliquots of plasma in the wells designed for plasma and buffer, respectively. Twenty μL of Solution B (0.02 mM of test and reference compounds) were spiked into the pre-loaded plasma in the 96-well plate. The final test concentration is 1 μM containing 0.2% DMSO.
For dialysis sample loading a plasma again buffer system was prepared by applying aliquots of 100 μL of blank dialysis buffer to the receiver side of dialysis chambers and then applying aliquots of 100 μL of the plasma spiked with test and reference compounds to the donor side of the dialysis chamber. A 25-μL aliquot of the plasma spiked with test and reference compounds was added into a 96-well sample preparation plate as T″0″ plasma samples. Aliquots were mixed with the same volume of blank buffer (50:50, volume:volume). Samples were quenched with 200 μL of acetonitrile containing internal standard. The dialysis block was covered and a shaken at 60 rpm for 5 hours at 37° C.
After a 5-hour incubation, dialyzed samples were prepared from 25-μL aliquots from both the donor and receiver sides of the dialysis apparatus into new sample preparation plates. The aliquots were mixed with same volume of opposite matrixes. The samples were quenched with 200 μL acetonitrile containing internal standard. All 0-hour and 5-hour samples were vortexed at 600 rpm for 10 min followed by centrifugation at 5594×g for 15 minutes (Thermo Multifuge×3R). Fifty μL of the supernatants were transferred to anew 96-well plate and mixed with 50 μL Milli-Q water. The sample plate was covered and frozen at −20° C. until LC/MS/MS analysis.

[5] = Solubility in phosphate buffered saline (PBS), pH 7.4; format: physicochemical; conditions: phosphate buffer (PBS), aqueous buffer, kinetic from dmso stock; phosphate buffered saline pH 7.4, 1% DMSO, 1 hour shaking at room temperature
Experimental: (§1) For testing compound solubility in phosphate buffered saline (PBS), compound stock solutions were prepared at 10 mM in 100% DMSO. For testing in aqueous solution, the phosphate buffer was replaced with deionized, distilled water. Eleven grams Na2HPO4 (FW: 141.96 g/mol) and 3.5 g NaH2PO4.2H2O (FW: 156.03 g/mol) was added to 1 L Milli-Q water and adjusted to a pH to 7.4 with phosphoric acid or sodium hydroxide. For incubation, media were preheated to 37° C. Eight μL aliquots of reference and test compound stock solutions (10 mM) were added into 792 μL of 100 mM phosphate buffer (pH 7.4). The final DMSO concentration was 1%. Sample tubes were shaken for 1 hour at 1000 rpm at room temperature.
(§2) The calibration curve was prepared with 300-μM spiking solution (SS) in MeOH:acetonitrile (4:1). Six μL of 10 mM compound was added in 194 μL MeOH/acetonitrile (4:1). Samples were centrifuged for 10 minutes at 12,000 rpm to precipitate undissolved particles. Supernatants were transferred to a new tube or plate and dilute 10-fold and 100-fold with 100 mM buffer. Samples were prepared for LC-MS/MS analysis by adding 5 μL each sample (undiluted, 10-fold diluted, and 100-fold diluted) and 5 μL of standard curve samples to 95 μL of acetonitrile (containing internal standard).

[6] = Metabolic stability in human liver microsomal preparation; format: in vitro ADME; conditions: pH 7.4, human liver microsomes, NADPH, 37° C.; for half-life at 1 μM: 0-45 min, read-out: Metabolic Stability t1/2
Experimental: For evaluating the metabolic stability in human liver microsomal preparation, three buffers were prepared. Buffer A had 1.0 L of 0.1 M monobasic potassium phosphate buffer containing 1.0 mM EDTA. Buffer B had 1.0 L of 0.1 M dibasic potassium phosphate buffer containing 1.0 mM EDTA. Buffer C had 0.1 M potassium phosphate buffer, 1.0 mM EDTA, adjusted to a pH 7.4 via titrating 700 mL buffer B with buffer A. Reference compound (ketanserin) and test compounds spiking solutions (500 μM) were prepared by adding 10 μL of 10 mM DMSO stock compound solution into 190 μL acetonitrile. A volume of 1.5 μL 500 μM spiking solution and 18.75 μL 20 mg/mL human liver microsomes were added into 479.75 μL of Buffer C on ice. A stock solution of 6 mM NADPH was prepared by dissolving NADPH into Buffer C.
Wells on an assay plate were iced and filled with 30 μL 1.5-μM spiking solution containing 0.75 mg/mL microsomes solution and designated for different timepoints (0-, 5-, 15-, 30-, 45-min). For the 0-min timepoint, 135 μL acetonitrile containing internal standard were added followed by 15 μL of NADPH stock solution (6 mM). All other plates were preincubated at 37° C. for 5 minutes and 15 μL NADPH stock solution (6 mM) were added to the plates to start the reaction. At 5-min, 15-min, 30-min, and 45-min, 135 μL acetonitrile containing internal standard were added to the wells of corresponding plates, respectively, to stop the reaction. After quenching, the plates were shaken on the vibrator (IKA, MTS 2/4) for 10 min at 600 rpm and then centrifuged at 5594×g for 15 minutes (Thermo Multifuge×3R). Fifty μL supernatant from each well were transported into a 96-well sample plate containing 50 μL of ultra-pure water (Millipore, ZMQS50F01) for LC/MS analysis.

[7] = Solubility in aqueous solution (deionized, distilled water); format: physicochemical; conditions: kinetic from dmso stock, 1% DMSO, read-out: Aqueous Solubility H2O
Experimental: as §1, §2

recombinant full-length human hydroxyacid oxidase 1 (HAO1), the equivalent of hGOX, sequence (Q9UJM8 whole entry): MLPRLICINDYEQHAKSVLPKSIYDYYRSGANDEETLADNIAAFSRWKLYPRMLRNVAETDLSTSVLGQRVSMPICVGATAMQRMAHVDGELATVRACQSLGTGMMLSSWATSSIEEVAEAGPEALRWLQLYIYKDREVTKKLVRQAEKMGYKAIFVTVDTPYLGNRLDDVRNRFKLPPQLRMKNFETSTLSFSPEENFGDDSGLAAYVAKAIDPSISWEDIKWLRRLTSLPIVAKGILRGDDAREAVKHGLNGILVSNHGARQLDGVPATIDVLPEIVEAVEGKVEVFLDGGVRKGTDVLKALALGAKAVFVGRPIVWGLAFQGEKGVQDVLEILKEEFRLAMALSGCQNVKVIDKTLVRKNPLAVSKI
glycolate oxidase (GOX) in HepaRG-CAR cells, sequence (Q9UJM8 whole entry): as above

| IC50 [1] | IC50 [2] | half-life at 2 μM [3] | recovery at 5 h, 1 μM [4] | solubility at 1 h [5] | CLint scaled at 1 μM [6] | half-life at 1 μM [6] | solubility at 1 h [7] | fraction unbound at 5 h, 1 μM [4] | SMILES |
| --- | --- | --- | --- | --- | --- | --- | --- | --- | --- |
| 10000 nM | 17 nM | 3.22 h | 97.7% |  |  |  |  |  | O=C(O)c1[nH]nnc1Oc1ccc(-c2ccc(Cl)cc2)cc1 [Example I-152, 5-((4′-Chloro-[1,1′-biphenyl]-4-yl)oxy)-1H-1,2,3-triazole-4-carboxylic acid] |
|  | 65 nM | 2.71 h | 108% | 113 µM (≈ 31.1 µg/mL) | 8.56 mL/min/kg | 3.38 h | 97.2 µM (≈ 26.8 µg/mL) | 0.003 | CCCC(C)c1cccc(Oc2[nH]nnc2C(=O)O)c1 (stereo not drawn) [Example I-277] |
|  | 53 nM | 1.71 h | 111% | 108 µM (≈ 26.4 µg/mL) | 3.4 mL/min/kg | 8.52 h | 108 µM (≈ 26.4 µg/mL) |  | O=C(O)c1nn[nH]c1Oc1ccc(C2CC2)cc1 [Example I-294, 5-(4-Cyclopropylphenoxy)-1H-1,2,3-triazole-4-carboxylic acid] |
|  | 23 nM | 0.747 h | 100% | 95.7 µM (≈ 26.9 µg/mL) | 3.04 mL/min/kg | 8.78 h | 83.1 µM (≈ 23.4 µg/mL) |  | O=C(O)c1nn[nH]c1Oc1ccc(-c2ccccc2)cc1 [Example I-150, 5-([1,1′-Biphenyl]-4-yloxy)-1H-1,2,3-triazole-4-carboxylic acid] |
|  | 12 nM | 1.12 h | 99.3% | 89.3 µM (≈ 29.6 µg/mL) | 3.07 mL/min/kg | 9.43 h | 45.7 µM (≈ 15.1 µg/mL) |  | O=C(O)c1nn[nH]c1Oc1ccc(-c2ccc3ccccc3c2)cc1 [Example I-177, 5-(4-(Naphthalen-2-yl)phenoxy)-1H-1,2,3-triazole-4-carboxylic acid] |
|  | 23 nM | 3.2 h | 108% | 109 µM (≈ 30 µg/mL) | 5.95 mL/min/kg | 4.87 h | 103 µM (≈ 28.4 µg/mL) | 0.006 | CCC(CC)c1cccc(Oc2[nH]nnc2C(=O)O)c1 [Example I-276, 5-(3-(Pentan-3-yl)phenoxy)-1H-1,2,3-triazole-4-carboxylic acid] |
|  | 13000 nM | 0.985 h | 109% | 97.9 µM (≈ 32.4 µg/mL) | 7.08 mL/min/kg | 4.09 h | 83.4 µM (≈ 27.6 µg/mL) |  | O=C(O)c1nn[nH]c1Oc1cccc(-c2ccc3ccccc3c2)c1 [Example I-178, 5-(3-(Naphthalen-2-yl)phenoxy)-1H-1,2,3-triazole-4-carboxylic acid] |
|  | 51 nM | 1.84 h | 106% | 97.6 µM (≈ 28 µg/mL) | 84.2 mL/min/kg | 0.344 h | 111 µM (≈ 31.9 µg/mL) |  | O=C(O)c1nn[nH]c1Oc1cccc(C2CCCCC2)c1 [Example I-268, 5-(3-Cyclohexylphenoxy)-1H-1,2,3-triazole-4-carboxylic acid] |
|  | 45 nM | 2.2 h | 99.9% | 112 µM (≈ 30.8 µg/mL) | 35.2 mL/min/kg | 0.822 h | 108 µM (≈ 29.7 µg/mL) | 0.003 | CCCC(C)c1ccc(Oc2[nH]nnc2C(=O)O)cc1 (stereo not drawn) [Example I-273, 5-(4-(Pentan-2-yl)phenoxy)-1H-1,2,3-triazole-4-carboxylic acid] |
|  | 20 nM | 1.72 h | 109% | 85.7 µM (≈ 22.2 µg/mL) | 13.4 mL/min/kg | 2.16 h | 82.5 µM (≈ 21.4 µg/mL) | 0.002 | CC(C)=Cc1ccc(Oc2[nH]nnc2C(=O)O)cc1 [Example I-287, 5-(4-(2-Methylprop-1-en-1-yl)phenoxy)-1H-1,2,3-triazole-4-carboxylic acid] |
|  | 84 nM | 4.61 h | 101% | 103 µM (≈ 28.3 µg/mL) | 65.3 mL/min/kg | 0.443 h | 96.6 µM (≈ 26.6 µg/mL) |  | CCC(CC)c1ccc(Oc2[nH]nnc2C(=O)O)cc1 [Example I-272, 5-(4-(Pentan-3-yl)phenoxy)-1H-1,2,3-triazole-4-carboxylic acid] |
